The subject of data set [1] is thoracic aorta. The experiment in a line: Vasorelaxant effect on isolated vessels (rat thoracic aorta rings without endothelium, precontracted with noradrenalin). As to conditions: for Emax: Rattus norvegicus, maximum inhibition of noradrenalin effect, 10^-8 to 10^-4 M substance, read-out: Maximum Relaxation; for IC50: rat aorta, 10^-7 M noradrenalin contraction. Further details: species or system Wistar rats. In a few lines:
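Endothelium-denuded thoracic aorta rings from Wistar rats, held in Krebs-Ringer buffer (pH 7.4, 37 °C, 95% O2/5% CO2) under isometric tension and precontracted with 10^-7 M noradrenalin, received cumulative compound (10^-8 to 10^-4 M). Maximum relaxation given as percent; IC50 calculated when relaxation exceeded 50%.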

Data set [2] relates to isolated pulmonary vessel. Kind of data set: Relaxant activity on blood vessels isolated from guinea pigs (pulmonary artery). As to conditions: Cavia porcellus; guinea pig pulmonary artery, K+ depolarised, Ca2+ contraction; read-out: IC50 (relaxation of 50%). As to the method:
Determination of the relaxant activity of the compounds according to the invention on blood vessels isolated from guinea pigs.
The pulmonary artery of male guinea pigs (350-500 g) is isolated and cut into spiral tracts (1 mm wide, 15 mm long). […] After having removed the calcium from the tissues (Tyrode without calcium and 0.2 mM EDTA), the tracts are depolarised in the presence of a concentrated solution of K^+ ions (40 mM), which is produced by replacing the NaCl by equimolar amounts of KCl, and a contraction of long duration is then induced by Ca^2+ ions (0.5 mM).
The compounds studied are then introduced into the organ cell in increasing concentrations.
Each compound is tested on at least four vessel spiral tracts.

The subject of data set [3] is anesthetised pigs. The experiment in a line: Haemodynamic effects on anesthetised pigs. The class given is in vivo, pigs ("German land" race). As for the experimental part: Haemodynamic effects of the compounds according to the invention on anesthetised pigs or dogs
Pigs are of "German land" race (20-26 kg) and are used after fasting overnight.
In the case of pigs, sedation, analgesia and anesthesia are induced by ketamine HCl (20 mg/kg i.m.), methonidate HCl (10 mg/kg i.m.), xylacine HCl (3 mg/kg i.m.) and sodium pentobarbitol (25-30 mg/kg as bolus i.v. or 0.16 mg/kg/min as i.v. perfusion).
The pigs or dogs are placed under artificial respiration in ambient air. Analysis of the blood gases (pO2, pCO2) is carried out at regular intervals and oxygen can be supplied via the respirator, if necessary.
The haemodynamic parameters recorded include the left ventricular pressure (LVP; Millar PC350 Tip catheter inserted via the carotid artery), systemic blood pressure (BPs, BPd; full catheter in a femoral artery), the end pressure of the left ventricular diastole (LVEDP), the ventricular contractility (LVPdp/dtmax) and the heart rate (HR).
The haemodynamic variables are recorded continuously for 1 to 3 hours, as a function of the period of action of the compound.
The effects of the compounds studied are shown as the absolute difference with respect to the base value (bv) measured before administration of the compounds and are shown in Table VII (a,b,c).
An antianginal activity is estimated by a fall in the BPs and the LVEDP (fall in venous return).

Data set [4] can be described thus: Stability in water (seen in optical rotation). The class given is physicochemical. To be noted: water (c 0.6).

Counter-ions that a name gives are not always drawn.

The term IC50 denotes the concentration at which inhibition is half-maximal.

As for `O=C(O[C@@H]1CO[C@H]2[C@@H]1OC[C@@H]2O[N+](=O)[O-])c1ccccc1SCc1ccccc1` [Compound 28, 5-O-[2-[(Phenylmethyl)thio]benzoyl]-2-O-nitro-1,4:3,6-dianhydro-D-glucitol], in data set [1], the Emax stood at 70% and the IC50 was 50 µM. Further, the 50% inhibitory concentration (IC50) in data set [2] came out at 2 µM. In data set [3] (pigs, 3,0 mg/kg i.d.), the “BPs (min), period of action” value is reported as > 180 min; the “BPs, difference to base value” is on record as -28 mmHg; the “LVRDP (min), period of action” value is > 180 min; the “LVRDP, difference to base value” is on record as -6,0 mmHg.

Consider `CC1(C)SC[C@@H](C(=O)NCC(=O)N[C@H]2CO[C@H]3[C@@H]2OC[C@@H]3O[N+](=O)[O-])N1C=O` [Compound 48, 5-[[2-[[(3-Formyl-2,2-dimethyl-4-L-thiazolidinyl)carbonyl]amino]-1-oxoethyl]amino]-5-deoxy-2-O-nitro-1,4:3,6-dianhydro-L-iditol], for which, in data set [1], the Emax amounted to 25% and the 50% inhibitory concentration (IC50) was > 100 µM. Besides, the half-inhibitory concentration (IC50) in data set [2] is > 100 µM. In data set [3] (pigs, 10,0 mg/kg i.d.), the “BPs (min), period of action” value is > 180 min; the “BPs, difference to base value” was -25 mmHg; the “LVRDP (min), period of action” value is listed as > 180 min; the “LVRDP, difference to base value” is -4,0 mmHg.

With `O=C(N[C@H]1CO[C@H]2[C@@H]1OC[C@@H]2O[N+](=O)[O-])c1ccccc1SCc1ccccc1` [Compound 39], in data set [1], the Emax is 80% and it took 50 µM to reach half-maximal inhibition (IC50). The 50% inhibitory concentration (IC50) in data set [2] was 1 µM. In data set [3] (pigs, 10,0 mg/kg i.d.), the “BPs (min), period of action” value is > 90 min; the “BPs, difference to base value” was -5 mmHg; the “LVRDP (min), period of action” value was > 90 min; the “LVRDP, difference to base value” is -1,0 mmHg.

In the case of `CC1(C)N[C@H](C(=O)N[C@H]2CO[C@H]3[C@@H]2OC[C@@H]3O[N+](=O)[O-])CS1` [Compound 32, 5-[[(2,2-Dimethyl-4-L-thiazolidinyl)carbonyl]amino]-5-deoxy-2-O-nitro-1,4:3,6-dianhydro-L-iditol monohydrochloride], in data set [1], the Emax came to 100% and it took 15 µM to reach half-maximal inhibition (IC50). Besides, in data set [3] (pigs, 3,0 mg/kg i.d.), the “BPs (min), period of action” value is listed as > 180 min; the “BPs, difference to base value” is reported as -30 mmHg; the “LVRDP (min), period of action” value was > 180 min; the “LVRDP, difference to base value” was -4,0 mmHg. In addition, in data set [4], the stability in water entry was “instability of the product in water”.

Take `CC(C)(C)OC(=O)NCC(=O)N[C@H]1CO[C@H]2[C@@H]1OC[C@@H]2O[N+](=O)[O-]` [Compound 5, N-[(t-Butoxy)carbonyl]glycine amide of 5-amino-5-deoxy-2-O-nitro-1,4:3,6-dianhydro-L-iditol]: in data set [1], the Emax was 70% and the IC50 was 25 µM. Also, the IC50 in data set [2] is 14 µM. In addition, in data set [3] (pigs, 1,0 mg/kg i.d.), the “BPs (min), period of action” value is > 120 min; the “BPs, difference to base value” is -24 mmHg; the “LVRDP (min), period of action” value is > 120 min; the “LVRDP, difference to base value” is on record as -4,0 mmHg.

With `O=C(N[C@H]1CO[C@H]2[C@@H]1OC[C@@H]2O[N+](=O)[O-])[C@@H]1CSCN1` [Compound 30, 5-[[(4-L-Thiazolidinyl)carbonyl]amino]-5-deoxy-2-O-nitro-1,4:3,6-dianhydro-L-iditol monohydrochloride], in data set [1], the Emax turned out to be 100% and the 50% inhibitory concentration (IC50) is 10 µM. For the same compound, the half-inhibitory concentration (IC50) in data set [2] came out at 32 µM. In data set [3] (pigs, 3,0 mg/kg i.d.), the “BPs (min), period of action” value was > 60 min; the “BPs, difference to base value” was -40 mmHg; the “LVRDP (min), period of action” value was > 60 min; the “LVRDP, difference to base value” was -2,0 mmHg.

`O=C(O[C@H]1CO[C@H]2[C@@H]1OC[C@H]2O[N+](=O)[O-])c1ccccc1SCc1ccccc1` [Compound 22, 2-O-[2-[(Phenylmethyl)thio]benzoyl]-5-O-nitro-1,4:3,6-dianhydro-D-glucitol]: in data set [1], the Emax was determined as 100% and the IC50 worked out at 10 µM. In addition, in data set [2], the IC50 is 3 µM. Further, in data set [3] (pigs, 10 mg/kg i.v.), the “BPs (min), period of action” value came to 5 min; the “BPs, difference to base value” is reported as -73 mmHg; the “LVRDP (min), period of action” value is given as 5 min; the “LVRDP, difference to base value” is given as -2,0 mmHg.

Source of the values: patent publication US5591758A, “Organic nitrates, processes for their preparation and their use in the treatment of cardiovascular diseases” (Laboratoires Hoechst, SA, priority 1991, dated 1997).
